In assay [1] the target is T1, ROCKII (1-543) (Homo sapiens (Human), UniProt O75116). The experiment in a line: IMAP Assay (fluorescence polarization, FAM S6 peptide). The assay is classed as biochemical. The note with it: 100 μM ATP, 200 nM FAM S6 peptide, 1 nM kinase; read-out: Assay 2 IC50. The procedure: This assay is performed using FAM S6 substrate peptide (Catalogue #R7184) and IMAP FP Screening Express Kit detection reagents from Molecular Devices (Sunnyvale, Calif.) in IMAP kinase reaction buffer (Tris-HCl, pH 7.2, 10 mM MgCl2, 0.05% NaN3, 0.1% phosphate-free BSA) containing 1 mM DTT. Test compounds dissolved in neat DMSO at 0.3 mg/mL are serially diluted 1 to 3 for concentration response in 100% DMSO. The DMSO serial dilutions are further diluted 33.33-fold in kinase reaction buffer, and 10 μL of this buffer dilution is transferred to Corning black 96-well half area NBS plates for a final top concentration of 3 μg/mL in 1% DMSO. 10 μL aliquot of 3 nM ROCKII (1-543) diluted in kinase reaction buffer is added to each assay well for a final concentration of 1 nM kinase. 10 μL of a mixture of 600 nM FAM S6 peptide and 300 μM ATP diluted in kinase reaction buffer is added to each well for a final concentration of 200 nM peptide and 100 μM ATP. The kinase reaction mixture is incubated for 60 minutes at room temperature. Positive controls are reaction mixtures containing no test compound and negative controls (blanks) are reaction mixtures containing no kinase. The kinase reaction is stopped by addition of 60 μL IMAP progressive binding reagent (Catalog #R7284) diluted 400-fold in 1× Binding buffer A. After 30 min of incubation at room temperature, the plates are read for fluorescence polarization on Analyst Plate Reader using Ex 485 nm, Em 530 nm, and FL 505 dichroic mirror. The mP signals are converted to percent of control (POC) values using the formula: POC=100*(Signal−BCTRL)÷(PCTRL−BCTRL)
Where Signal is the test well signal, BCTRL is the average of background (negative control) well signals on the plate and PCTRL is the average of positive control well signals on the plate. For the concentration-responsive compounds, POC as a function of test compound concentration is fitted to a 4-parameter logistic equation of the form: Y=A+(B−A)/[1+(x/C)D] Where A, B, C, and D are fitted parameters (parameter B is fixed at zero POC), and x and y are the independent and dependent variables, respectively. The IC50 is determined as the inflection point parameter, C.
(In general: Fluorescence polarisation rises when a labelled molecule tumbles more slowly, as on binding a larger partner.)
Target sequence in this assay (O75116 1-543, species assumed): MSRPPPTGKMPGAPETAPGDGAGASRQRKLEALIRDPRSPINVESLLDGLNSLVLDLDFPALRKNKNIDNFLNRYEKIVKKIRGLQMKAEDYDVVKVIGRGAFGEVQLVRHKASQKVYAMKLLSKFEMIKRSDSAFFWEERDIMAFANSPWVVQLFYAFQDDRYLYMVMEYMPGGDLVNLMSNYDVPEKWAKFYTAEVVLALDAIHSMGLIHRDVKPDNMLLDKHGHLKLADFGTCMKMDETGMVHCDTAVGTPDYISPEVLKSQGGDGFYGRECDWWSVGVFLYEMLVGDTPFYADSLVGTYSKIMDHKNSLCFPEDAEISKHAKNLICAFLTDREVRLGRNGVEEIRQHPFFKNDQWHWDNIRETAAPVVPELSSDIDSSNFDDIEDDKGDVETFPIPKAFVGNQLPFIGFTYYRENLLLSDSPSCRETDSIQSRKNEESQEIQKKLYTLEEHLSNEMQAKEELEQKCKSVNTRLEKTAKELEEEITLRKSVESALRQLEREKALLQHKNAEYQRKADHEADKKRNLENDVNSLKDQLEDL

In assay [2] the target is T1, ROCKII (1-543). In words: Luciferin-Luciferase Assay (PKLight ATP detection). In kind it is biochemical. The note with it: 750 nM ATP, 500 nM peptide, 7.5 nM kinase. On the procedure:
1. Luciferin-Luciferase Assay
The activity of ROCKII (1-543) kinase was measured utilizing Cambrex PKLight ATP Detection Reagent, a homogeneous assay technology using luciferin-luciferase to quantify residual ATP. The assay was performed in 384-well low-volume, white, non-binding surface microtiter plates (Corning). The assay buffer was 25 mM HEPES, pH 7.5, 10 mM MgCl2, 50 mM KCl, 0.2% BSA, 0.01% CHAPS, 100 μM Na3VO4 and 0.5 mM DTT. Test compounds, dissolved in neat DMSO at 500 μg/mL, were serially diluted for dose response for a final starting concentration of 3 μg/mL in 1% DMSO of assay buffer. ROCKII (1-543) (62,408Da) was diluted in assay buffer to a final concentration of 7.5 nM in a total volume of 15 μL. Positive controls were reaction mixtures containing no test compound; negative controls (blanks) were reaction mixtures containing no kinase. After 15 minutes of pre-incubation of the test compounds with the kinase, a mixture of ATP and peptide substrate ([…]) in assay buffer was added to each well for a final concentration of 750 nM ATP and 500 nM peptide, respectively. After 90 minutes of incubation of the kinase reaction at 28° C. temperature, 10 μL of PKLight ATP Detection Reagent (warmed to room temperature previously) was added to each well. The assay plate was incubated at room temperature for additional 15 minutes and then read on an Analyst in luminescence mode. Dose-response experiments for each of the test compounds were conducted in quadruplet. IC50 values of test compounds represent 50% response of the positive control from the dose-response curve.
Target sequence in this assay (O75116 1-543): as the sequence (O75116 1-543, species assumed) above

This passage reports IC50 results from US9079880B2, “Rho kinase inhibitors” (Boehringer Ingelheim International GmbH, priority 2010, dated 2015).

Usually IC50 stands for the concentration needed to halve the response being measured.

In the case of `CN(C)[C@H]1CCc2nc(NC(=O)c3cccc(OCC(=O)Nc4ccc(C#N)cc4)c3)sc2C1` [Compound 9], the IC50 amounted to 2.2 nM on ROCKII (1-543) [1] and 1.7 nM on ROCKII (1-543) [2]. Turning to `N#Cc1ccc(NC(=O)COc2cccc(C(=O)Nc3nc4c(s3)C[C@@H](N)CC4)c2)cc1` [Compound 11, N—((S)-6-amino-4,5,6,7-tetrahydro-benzothiazol-2-yl)-3-[(4-cyano-phenylcarbamoyl)-methoxy]-benzamide], the values for the IC50 on ROCKII (1-543) [1] and against ROCKII (1-543) [2] were 11 nM and 3.7 nM, respectively. For the molecule `N#Cc1ccc(NC(=O)COc2cccc(C(=O)Nc3nc4c(s3)C[C@@H](N3CCOCC3)CC4)c2)cc1` [Compound 13], the IC50 at ROCKII (1-543) [1] amounted to 8.5 nM; at ROCKII (1-543) [2], 3.4 nM.

Consider `N#Cc1cccc(NC(=O)N2CCC[C@@H]2c2cccc(C(=O)Nc3ccc(CCN4CCOCC4)cc3)c2)c1` [Compound 16, (R)-2-{3-[4-(2-morpholin-4-yl-ethyl)-phenylcarbamoyl]-phenyl}-pyrrolidine-1-carboxylic acid (3-cyano-phenyl)-amide trifluoro acetic acid], for which the concentration for half-maximal inhibition (IC50) on ROCKII (1-543) [1] was found to be 23 nM; against ROCKII (1-543) [2], 5.8 nM. As to `N#Cc1cccc(NC(=O)N2CCC[C@@H]2c2cccc(C(=O)Nc3ccc(CCN4CCCC4)cc3)c2)c1` [Compound 18], the IC50 at ROCKII (1-543) [1] was 19 nM; on ROCKII (1-543) [2] it was 6 nM. The like results for `N#Cc1cccc(NC(=O)N2CCC[C@@H]2c2cccc(C(=O)Nc3nc4c(s3)C[C@@H](N)CC4)c2)c1` [Compound 20, (R)-2-[3-((S)-6-Amino-4,5,6,7-tetrahydro-benzothiazol-2-ylcarbamoyl)-phenyl]-pyrrolidine-1-carboxylic acid (3-cyano-phenyl)-amide trifluoroacetic acid] were, in that order, 0.39 nM and 1.7 nM. For `N#Cc1cccc(NC(=O)N2CCC[C@@H]2c2cccc(C(=O)Nc3nc4c(s3)C[C@H](N)CC4)c2)c1` [Compound 22], in that order: 1 nM and 2.6 nM. The like results for `CN1CCc2nc(NC(=O)c3cccc([C@H]4CCCN4C(=O)c4ccc(-c5ccncc5)cc4)c3)sc2C1` [Compound 26] were, in that order, 5.8 nM and 1.7 nM. With `CCCN[C@H]1CCc2nc(NC(=O)c3cccc([C@H]4CCCN4C(=O)Nc4cccc(C#N)c4)c3)sc2C1` [Compound 29, (R)-2-[3-((S)-6-propylamino-4,5,6,7-tetrahydro-benzothiazol-2-ylcarbamoyl)-phenyl]-pyrrolidine-1-carboxylic acid (3-cyano-phenyl)-amide], the concentration for half-maximal inhibition (IC50) turned out to be 0.8 nM on ROCKII (1-543) [1] and 1.6 nM at ROCKII (1-543) [2].

As to `CCCN[C@H]1CCc2nc(NC(=O)c3cccc([C@@H](C)NC(=O)c4ccc(OC)c(OC)c4)c3)sc2C1` [Compound 31, 3,4-dimethoxy-N-{(R)-1-[3-((S)-6-propylamino-4,5,6,7-tetrahydro-benzothiazol-2-ylcarbamoyl)-phenyl]-ethyl}-benzamide], the IC50 is 0.3 nM at ROCKII (1-543) [1] and 1 nM on ROCKII (1-543) [2]. For `CCCN[C@H]1CCc2nc(NC(=O)c3cccc([C@@H](C)NC(=O)c4ccc(OC)c(Cl)c4)c3)sc2C1` [Compound 33], in that order: 0.5 nM and 1.2 nM. The like results for `CCCN[C@H]1CCc2nc(NC(=O)c3cccc([C@@H](C)NC(=O)c4ccc(OC)c(C)c4)c3)sc2C1` [Compound 35] were, in that order, 0.4 nM and 0.9 nM. The like results for `CN1CCc2nc(NC(=O)c3cccc([C@H]4CCCN4C(=O)N4CCc5c(C#N)cccc54)c3)sc2C1` [Compound 42, 3-[(R)-1-(4-Cyano-2,3-dihydro-indole-1-carbonyl)-pyrrolidin-2-yl]-N-(5-methyl-4,5,6,7-tetrahydro-thiazolo[5,4-c]pyridin-2-yl)-benzamide trifluoroacetic acid] were, in that order, 44.5 nM and 6.9 nM.

For the molecule `CN1CCc2nc(NC(=O)c3cccc([C@H]4CCCN4C(=O)Nc4ccc(C(N)=O)cc4)c3)sc2C1` [Compound 44], the IC50 at ROCKII (1-543) [1] is 0.7 nM; at ROCKII (1-543) [2], 1.4 nM. In the case of `Cc1nc(-c2ccncc2)sc1C(=O)N1CCC[C@@H]1c1cccc(C(=O)Nc2nc3c(s2)C[C@@H](N(C)C)CC3)c1` [Compound 48], the results for the half-maximal inhibitory concentration (IC50) at ROCKII (1-543) [1] and on ROCKII (1-543) [2] were 10 nM and 2.8 nM, respectively. The like results for `CN(C)[C@H]1CCc2nc(NC(=O)c3cccc([C@H]4CCCN4C(=O)c4nnn(-c5nonc5N)c4-c4ccccc4)c3)sc2C1` [Compound 50] were, in that order, 8.7 nM and 2.2 nM.

`CN1CCc2nc(NC(=O)c3cccc([C@H]4CCCN4C(=O)c4cccc(-c5cn[nH]c5)c4)c3)sc2C1` [Compound 78]: the IC50 was determined as 2.1 nM on ROCKII (1-543) [1] and 1.9 nM on ROCKII (1-543) [2]. As to `COc1ccc(C(=O)N[C@H](C)c2cccc(C(=O)Nc3nc4c(s3)CN(C)CC4)c2)cc1Cl` [Compound 89], the IC50 stood at 13 nM on ROCKII (1-543) [1] and 3.9 nM against ROCKII (1-543) [2]. On to `CN(C)[C@H]1CCc2nc(NC(=O)c3cccc([C@H]4CCCN4C(=O)c4ccc(-c5cnco5)cc4)c3)sc2C1` [Compound 90], for which the IC50 on ROCKII (1-543) [1] worked out at 2.1 nM. Consider `CN(C)[C@H]1CCc2nc(NC(=O)c3cccc([C@H]4CCCN4C(=O)c4csc(-c5cccnc5)n4)c3)sc2C1` [Compound 92], for which the IC50 on ROCKII (1-543) [1] was found to be 1.3 nM.

On to `COc1ccc(C(=O)N[C@H](C)c2cccc(C(=O)Nc3nc4c(s3)CN(C)CC4)c2)cc1C` [Compound 93], for which the 50% inhibitory concentration (IC50) on ROCKII (1-543) [1] turned out to be 29 nM; against ROCKII (1-543) [2], 9 nM. In the case of `CN(C)[C@H]1CCc2nc(NC(=O)c3cccc([C@H]4CCCN4C(=O)c4csc(-c5ccncc5)n4)c3)sc2C1` [Compound 94], the IC50 at ROCKII (1-543) [1] amounted to 2 nM. Still for that read-out and setting: the figure for `CN(C)[C@H]1CCc2nc(NC(=O)c3cccc([C@H]4CCCN4C(=O)c4cc(-c5ccncc5)[nH]n4)c3)sc2C1` [Compound 96] is 0.8 nM. Take `COc1ccc(C(=O)N[C@H](C)c2cccc(C(=O)Nc3nc4c(s3)CN(C)CC4)c2)cc1OC` [Compound 97]: the results for the IC50 at ROCKII (1-543) [1] and at ROCKII (1-543) [2] were 5.8 nM and 3.1 nM, respectively. Turning to `CCCC[C@@H](NC(=O)c1ccc(OC)c(OC)c1)c1cccc(C(=O)Nc2nc3c(s2)CN(C)CC3)c1` [Compound 98], the results for the IC50 at ROCKII (1-543) [1] and on ROCKII (1-543) [2] were 11 nM and 6.2 nM, respectively. For the molecule `CN(C)[C@H]1CCc2nc(NC(=O)c3cccc([C@H]4CCCN4C(=O)c4ccc5cc(O)ccc5c4)c3)sc2C1` [Compound 100], the IC50 at ROCKII (1-543) [1] was 2 nM.

Take `CN1CCc2nc(NC(=O)c3cccc([C@H]4CCCN4C(=O)Nc4cccc(C#N)c4)c3)sc2C1` [Compound 101, (R)-2-[3-(5-Methyl-4,5,6,7-tetrahydro-thiazolo[5,4-c]pyridin-2-ylcarbamoyl)-phenyl]-pyrrolidine-1-carboxylic acid (3-cyano-phenyl)-amide trifluoroacetic acid]: the IC50 at ROCKII (1-543) [1] came to 6.8 nM; on ROCKII (1-543) [2], 3.1 nM. For `CN(C)[C@H]1CCc2nc(NC(=O)c3cccc([C@H]4CCCN4C(=O)c4ccc(-n5ccnc5)cc4)c3)sc2C1` [Compound 102], the IC50 on ROCKII (1-543) [1] came out at 3.6 nM; at ROCKII (1-543) [2], 2.6 nM. As for `CN(C)[C@H]1CCc2nc(NC(=O)c3cccc([C@H]4CCCN4C(=O)c4cn5cc(C(N)=O)ccc5n4)c3)sc2C1` [Compound 104], on ROCKII (1-543) [1], the 50% inhibitory concentration (IC50) was found to be 1.7 nM. Regarding `CN(C)[C@H]1CCc2nc(NC(=O)c3cccc([C@H]4CCCN4C(=O)c4cccc(-c5cn[nH]c5)c4)c3)sc2C1` [Compound 106], at ROCKII (1-543) [1], the IC50 turned out to be 1.9 nM.

In the case of `O=C(Nc1nc2c(s1)C[C@@H](N1CCOCC1)CC2)c1cccc([C@H]2CCCN2C(=O)c2cc(-c3ccncc3)[nH]n2)c1` [Compound 138], the IC50 on ROCKII (1-543) [1] was found to be 4.2 nM.
